Data as given in patent publication US20050130252A1, “Stabilized susceptibility tests of aerobic pathogens” (Wyeth Holdings Corporation, priority 2003, published 2005).
In brackets after ≈: the same amount, converted by molar mass. Read-outs that look alike come from different tables or passages of the source.

What was measured:
H. influenzae ATCC 49247 = test: Broth microdilution MIC; assay type: cell-based
Protocol: (§1) The process for preparing susceptibility test medium are the following steps: • a. Preparing Mueller Hinton Broth II medium by adding 22 grams powdered media to 1.0 liter distilled water; • b. Autoclaving (121° C., 15 psi, 15 minutes) and cooling the medium; • c. Adding Oxyrase® up to about 10% final volume and keeping at 35-37° C. in an incubator for 30 minutes; • d. Adding about 50 μL to each well of a 96 well microtiter plate; • e. Weighing drug and adding broth to drug to bring up to about (standard 128 μg/ml); • f. Adding 50 μL of the drug to the first column of the titer plate; • g. Diluting by two-fold serial diluting across or down the plate. • h. Preparing a Prompt™ inoculum at 10^8 CFU/ml; • i. Diluting inoculum 1:100 in the broth at […] in 9.9 ml (1:100) is 10^6 colony forming units (CFU) forming the adjusted inoculum; • j. Adding 50 μL of the adjusted inoculum to the wells of the microtiter plate; • k. Incubating the plates at 35-37° C. for 18-22 hours; and • l. Reading, with the unaided eye, the MIC.
The in vitro activities of tigecycline and control antibiotics were determined by the broth microdilution method as recommended by the NCCLS. (National Committee for Clinical Laboratory Standards, 2003. Methods for Dilution Antimicrobial Susceptibility Tests for Bacteria That Grow Aerobically; Approved Standards: M7-A6, Sixth ed, vol. 23., National Committee for Clinical Laboratory Standards Wayne, Pa.) was used for the standard procedures. […] Oxyrase® (Oxyrase Inc, Mansfield, Ohio) was used according to the manufacturer's instructions by adding 1 ml of Oxyrase® to 50 ml of media. Media age studies were performed by preparing MHB in multiple flasks, then storing the media under various conditions. MICs were usually performed in duplicate on each day of testing. Storage under anaerobic conditions was conducted in an anaerobic chamber (MACS MG 1000, Don Whitley Scientific LTD). The pH of the media was determined by pH meter (Corning 430). A comparison of the in vitro activity of tigecycline by agar and broth dilution methodolgies with and without Oxyrase® against clinical isolates is shown in Table 1.

[1] = tested on: clinical isolates and strains expressing various tetracycline resistance determinants; test: Broth microdilution MIC, panel of clinical isolates and tetracycline-resistant strains taken together; assay type: cell-based; conditions: Table 5 panel
Protocol: The in vitro activities of tigecycline and control antibiotics were determined by the broth microdilution method as recommended by the NCCLS. (National Committee for Clinical Laboratory Standards, 2003. Methods for Dilution Antimicrobial Susceptibility Tests for Bacteria That Grow Aerobically; Approved Standards: M7-A6, Sixth ed, vol. 23., National Committee for Clinical Laboratory Standards Wayne, Pa.) was used for the standard procedures. MBH with 5% lysed horse blood was used for testing S. pneumoniae and Haemophilus Test Medium was used for testing H. influenzae. Oxyrase® (Oxyrase Inc, Mansfield, Ohio) was used according to the manufacturer's instructions by adding 1 ml of Oxyrase® to 50 ml of media. Media age studies were performed by preparing MHB in multiple flasks, then storing the media under various conditions. MICs were usually performed in duplicate on each day of testing. Storage under anaerobic conditions was conducted in an anaerobic chamber (MACS MG 1000, Don Whitley Scientific LTD). The pH of the media was determined by pH meter (Corning 430). A comparison of the in vitro activity of tigecycline by agar and broth dilution methodolgies with and without Oxyrase® against clinical isolates is shown in Table 1. […]

P. aeruginosa ATCC 27853 = test: Broth microdilution MIC; assay type: cell-based, Pseudomonas aeruginosa; conditions: Pseudomonas aeruginosa, ATCC27853, read-out: Minimal Inhibitory Concentration, P. aeruginosa ATCC 27853
Protocol: as §1
(§2) The in vitro activities of tigecycline and control antibiotics were determined by the broth microdilution method as recommended by the NCCLS. (National Committee for Clinical Laboratory Standards, 2003. Methods for Dilution Antimicrobial Susceptibility Tests for Bacteria That Grow Aerobically; Approved Standards: M7-A6, Sixth ed, vol. 23., National Committee for Clinical Laboratory Standards Wayne, Pa.) was used for the standard procedures. MBH with 5% lysed horse blood was used for testing S. pneumoniae and Haemophilus Test Medium was used for testing H. influenzae. Oxyrase® (Oxyrase Inc, Mansfield, Ohio) was used according to the manufacturer's instructions by adding 1 ml of Oxyrase® to 50 ml of media. Media age studies were performed by preparing MHB in multiple flasks, then storing the media under various conditions. MICs were usually performed in duplicate on each day of testing. Storage under anaerobic conditions was conducted in an anaerobic chamber (MACS MG 1000, Don Whitley Scientific LTD). The pH of the media was determined by pH meter (Corning 430). A comparison of the in vitro activity of tigecycline by agar and broth dilution methodolgies with and without Oxyrase® against clinical isolates is shown in Table 1.

E. coli ATCC 25922 = test: Broth microdilution MIC; assay type: cell-based, Escherichia coli; conditions: Escherichia coli
Protocol: as §1, §2

[2] = Table 8, Mueller Hinton Broth + Oxyrase, n = 240
[3] = Table 8, Mueller Hinton Broth, n = 210

Structure (SMILES): CN(C)c1cc(NC(=O)CNC(C)(C)C)c(O)c2c1C[C@H]1C[C@H]3[C@H](N(C)C)C(O)=C(C(N)=O)C(=O)[C@@]3(O)C(O)=C1C2=O [Tigecycline, tigecycline]
- Number of Occurrences of MIC 0.008 ug/ml (H. influenzae ATCC 49247; [2]): 2
- Number of Occurrences of MIC 0.016 ug/ml (H. influenzae ATCC 49247; [2]): 1
- Number of Occurrences of MIC 0.06 ug/ml (H. influenzae ATCC 49247; [2]): 4
- Number of Occurrences of MIC 0.12 ug/ml (H. influenzae ATCC 49247; [2]): 156
- Number of Occurrences of MIC 0.25 ug/ml (H. influenzae ATCC 49247; [2]): 75
- Number of Occurrences of MIC 0.5 ug/ml (H. influenzae ATCC 49247; [2]): 2
- Number of Occurrences of MIC 0.12 ug/ml (H. influenzae ATCC 49247; [3]): 13
- Number of Occurrences of MIC 0.25 ug/ml (H. influenzae ATCC 49247; [3]): 156
- Number of Occurrences of MIC 0.5 ug/ml (H. influenzae ATCC 49247; [3]): 25
- Number of Occurrences of MIC 1 ug/ml (H. influenzae ATCC 49247; [3]): 10
- Number of Occurrences of MIC 2 ug/ml (H. influenzae ATCC 49247; [3]): 6
- MICs in fresh media lower than in aged media [1]: 1 to 3 dilutions
- MIC (P. aeruginosa ATCC 27853; 2% Oxyrase): 8 µg/mL (≈ 13.7 µM)
- MIC (P. aeruginosa ATCC 27853; No Oxyrase): 16 µg/mL (≈ 27.3 µM)
- MIC (E. coli ATCC 25922; ATCC25922, 0 h, E. coli ATCC 25922, Day 0, Pre-prepared media, room temperature, N = 6): 0.12 µg/mL (≈ 0.205 µM)
- MIC (E. coli ATCC 25922; ATCC25922, 0 h, E. coli ATCC 25922, Day 0, media Fresh from Powder 2° C., N = 6): 0.03 to 0.06 µg/mL (≈ 0.0512 to 0.102 µM)
- MIC (E. coli ATCC 25922; ATCC25922, 0 h, E. coli ATCC 25922, Day 0, media Fresh from Powder, room temperature, N = 6): 0.03 µg/mL (≈ 0.0512 µM)
- MIC (E. coli ATCC 25922; ATCC25922, 24 h, E. coli ATCC 25922, Day 1, Pre-prepared media, room temperature, N = 6): 0.12 to 0.25 µg/mL (≈ 0.205 to 0.427 µM)
- MIC (E. coli ATCC 25922; ATCC25922, 24 h, E. coli ATCC 25922, Day 1, media Fresh from Powder 2° C., N = 6): 0.03 to 0.06 µg/mL (≈ 0.0512 to 0.102 µM)
- MIC (E. coli ATCC 25922; ATCC25922, 24 h, E. coli ATCC 25922, Day 1, media Fresh from Powder, room temperature, N = 6): 0.06 µg/mL (≈ 0.102 µM)
- MIC (E. coli ATCC 25922; ATCC25922, 168 h, E. coli ATCC 25922, Day 7, Pre-prepared media, room temperature, N = 6): 0.12 to 0.25 µg/mL (≈ 0.205 to 0.427 µM)
- MIC (E. coli ATCC 25922; ATCC25922, 168 h, E. coli ATCC 25922, Day 7, media Fresh from Powder 2° C., N = 6): 0.06 µg/mL (≈ 0.102 µM)
- MIC (E. coli ATCC 25922; ATCC25922, 168 h, E. coli ATCC 25922, Day 7, media Fresh from Powder, room temperature, N = 6): 0.12 µg/mL (≈ 0.205 µM)
- MIC (E. coli ATCC 25922; ATCC25922, 336 h, E. coli ATCC 25922, Day 14, Pre-prepared media, room temperature, N = 6): 0.12 to 0.25 µg/mL (≈ 0.205 to 0.427 µM)
- MIC (E. coli ATCC 25922; ATCC25922, 336 h, E. coli ATCC 25922, Day 14, media Fresh from Powder 2° C., N = 6): 0.12 to 0.25 µg/mL (≈ 0.205 to 0.427 µM)
- MIC (E. coli ATCC 25922; ATCC25922, 336 h, E. coli ATCC 25922, Day 14, media Fresh from Powder, room temperature, N = 6): 0.12 to 0.25 µg/mL (≈ 0.205 to 0.427 µM)
- MIC (E. coli ATCC 25922; ATCC25922, 336 h, read-out: Minimal Inhibitory Concentration, E. coli ATCC 25922, media Aged Aerobic (2 weeks at RT under room air), N = 4): 0.12 to 0.25 µg/mL (≈ 0.205 to 0.427 µM)
- MIC (E. coli ATCC 25922; ATCC25922, 504 h, E. coli ATCC 25922, Day 21, media Fresh from Powder 2° C., N = 6): 0.25 µg/mL (≈ 0.427 µM)
- MIC (E. coli ATCC 25922; ATCC25922, 504 h, E. coli ATCC 25922, Day 21, media Fresh from Powder, room temperature, N = 6): 0.12 to 0.25 µg/mL (≈ 0.205 to 0.427 µM)
- MIC (E. coli ATCC 25922; ATCC25922, 672 h, E. coli ATCC 25922, Day 28, Pre-prepared media, room temperature, N = 6): 0.12 to 0.25 µg/mL (≈ 0.205 to 0.427 µM)
- MIC (E. coli ATCC 25922; ATCC25922, 672 h, E. coli ATCC 25922, Day 28, media Fresh from Powder 2° C., N = 6): 0.12 µg/mL (≈ 0.205 µM)
- MIC (E. coli ATCC 25922; ATCC25922, 672 h, E. coli ATCC 25922, Day 28, media Fresh from Powder, room temperature, N = 6): 0.12 to 0.25 µg/mL (≈ 0.205 to 0.427 µM)
- MIC (E. coli ATCC 25922; ATCC25922, read-out: Minimal Inhibitory Concentration (modal value), E. coli ATCC 25922, Aged Media + Oxyrase, N = 8): 0.12 µg/mL
- MIC (E. coli ATCC 25922; ATCC25922, read-out: Minimal Inhibitory Concentration (modal value), E. coli ATCC 25922, Aged media, N = 8): 0.25 µg/mL (≈ 0.427 µM)
- MIC (E. coli ATCC 25922; ATCC25922, read-out: Minimal Inhibitory Concentration (modal value), E. coli ATCC 25922, Fresh Media + Oxyrase, N = 8): 0.12 µg/mL
